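Five concentrations, 48 hours, 96-well plates. TGI: total growth inhibition.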
How the values were obtained:
Assay in all cases: growth of human tumour cells (NCI), 48 h
SNB-75 CNS = tested on: SNB-75 CNS
SNB-19 CNS = tested on: SNB-19 CNS
COLO 205 colon = tested on: COLO 205 colon
786-0 renal = tested on: 786-0 renal
SF-295 CNS = tested on: SF-295 CNS
U251 CNS = tested on: U251 CNS
SK-MEL-28 melanoma = tested on: SK-MEL-28 melanoma
UO-31 renal = tested on: UO-31 renal
BT-549 breast = tested on: BT-549 breast
NCI-H522 lung = tested on: NCI-H522 lung
UACC-62 melanoma = tested on: UACC-62 melanoma
SF-539 CNS = tested on: SF-539 CNS
M14 melanoma = tested on: M14 melanoma
RPMI-8226 leukemia = tested on: RPMI-8226 leukemia
A549 NSCLC = tested on: A549 NSCLC
LOX IMVI melanoma = tested on: LOX IMVI melanoma
HCT-15 colon = tested on: HCT-15 colon

Structure (SMILES)	TGI (SNB-75 CNS)	TGI (SNB-19 CNS)	TGI (COLO 205 colon)	TGI (786-0 renal)	TGI (SF-295 CNS)	TGI (U251 CNS)	TGI (SK-MEL-28 melanoma)	TGI (UO-31 renal)	TGI (BT-549 breast)	TGI (NCI-H522 lung)	TGI (UACC-62 melanoma)	TGI (SF-539 CNS)	TGI (M14 melanoma)	TGI (RPMI-8226 leukemia)	TGI (A549 NSCLC)	TGI (LOX IMVI melanoma)	TGI (HCT-15 colon)
CCn1c(SCC(=O)NNC(=S)Nc2ccc(Cl)cc2)nc2ccccc2c1=O	> 100 µM	> 100 µM	> 100 µM	> 100 µM	> 100 µM	> 100 µM	> 100 µM	> 100 µM	> 100 µM	> 100 µM	> 100 µM	> 100 µM	> 100 µM	94.8 µM	> 100 µM	> 100 µM	> 100 µM
O=C(O)c1cccc(S(=O)(=O)NN2C(=O)CSC2c2ccccc2Cl)c1 (configuration not stated)	> 100 µM	> 100 µM	> 100 µM	> 100 µM	> 100 µM	> 100 µM	> 100 µM	> 100 µM	> 100 µM	> 100 µM	> 100 µM	> 100 µM	> 100 µM	> 100 µM	> 100 µM	> 100 µM	> 100 µM
N=c1oc2ccc([N+](=O)[O-])cc2cc1C(=O)Nc1ccccn1	> 100 µM	> 100 µM	> 100 µM	42.9 µM		> 100 µM	> 100 µM		> 100 µM	86.2 µM	> 100 µM	> 100 µM	> 100 µM	> 100 µM	> 100 µM	> 100 µM	> 100 µM
c1csc(-c2ccc(-c3ccsc3)s2)c1	> 100 µM	> 100 µM	> 100 µM	> 100 µM	> 100 µM	> 100 µM	> 100 µM	> 100 µM	> 100 µM	> 100 µM	> 100 µM	> 100 µM	> 100 µM	> 100 µM	> 100 µM	> 100 µM	> 100 µM
CC(C)CC(NC=O)C(=O)NC(Cc1ccccc1)NC(=O)CNC(=O)C(C)NC(=O)OC(C)(C)C (configuration not stated)	> 100 µM	> 100 µM	> 100 µM	> 100 µM	> 100 µM	> 100 µM	> 100 µM	> 100 µM	> 100 µM	> 100 µM	> 100 µM	> 100 µM	> 100 µM	> 100 µM	> 100 µM	> 100 µM	> 100 µM
Cc1cc(CN(Cc2ccccc2)Cc2nc3ccccc3[nH]2)c(O)c(CN(Cc2nc3ccccc3[nH]2)Cc2nc3ccccc3[nH]2)c1	> 72.3 µM	> 25.1 µM	> 55.1 µM	73.4 µM	> 61.6 µM	> 100 µM	> 100 µM	36.7 µM	18.3 µM	> 69.5 µM	18.5 µM	22.4 µM	26.6 µM	38.4 µM	> 95.1 µM	13.3 µM	> 23.1 µM
S=C1NCCN1C(=S)NC1CCCCC1	72.1 µM		59.2 µM	> 100 µM	> 100 µM	> 100 µM	> 100 µM	81.6 µM	60.9 µM	69 µM	96.5 µM	70.7 µM	51.2 µM	> 100 µM	99.1 µM	> 100 µM	89.7 µM
N=C1/C(=C/c2ccccc2)C(=O)N=C2SC=NN12	> 100 µM	> 100 µM	> 100 µM	> 100 µM	> 100 µM	> 100 µM	> 100 µM	> 100 µM	> 100 µM	> 100 µM	> 100 µM	88.5 µM	> 100 µM	> 100 µM	> 100 µM	> 100 µM	> 100 µM
CC1=C(S(=O)c2ccc(C)cc2)CCC2(CCCCO2)O1 (configuration not stated)	> 100 µM	> 100 µM	> 100 µM	> 100 µM	> 100 µM	> 100 µM	> 100 µM	> 100 µM	> 100 µM	> 100 µM	> 100 µM			> 100 µM		> 100 µM	> 100 µM
O=C1CCCC(=O)N1n1c(Cc2ccc(Cl)cc2)n[nH]c1=O	> 100 µM	> 100 µM	> 100 µM	> 100 µM	> 100 µM	> 100 µM	> 100 µM	> 100 µM	> 100 µM	> 100 µM	> 100 µM	> 100 µM	> 100 µM	> 100 µM	> 100 µM	> 100 µM	> 100 µM
c1ccc(CNCCCNCCCCNCCCNCc2ccccc2)cc1	21.7 µM	27.4 µM		2.97 µM	35.2 µM	22.5 µM	26.7 µM	25.7 µM	33.3 µM	3.37 µM	21.1 µM	3.72 µM	16.1 µM	13.7 µM	45.5 µM	14.2 µM	33.8 µM
N#Cc1c(N)nc2c(N=Nc3ccccc3)c(N)nn2c1Nc1ccccc1	70.3 µM	39.9 µM	30.2 µM	38.5 µM	59.9 µM	24.6 µM	24.2 µM		50.6 µM	39.9 µM		47.2 µM	31.5 µM	16.2 µM	46.9 µM	10.5 µM	> 100 µM
Nc1nc(Cl)cc(NCC2(CO)CC(c3ccccc3)C2)n1 (configuration not stated)	> 100 µM	> 100 µM	> 100 µM	> 100 µM	> 100 µM	> 100 µM	> 100 µM	> 100 µM	> 100 µM	> 100 µM	> 100 µM	> 100 µM	> 100 µM	> 100 µM	> 100 µM	> 100 µM	> 100 µM
[O-]/N=N\c1on[n+](CCc2ccccc2)c1Cc1c(/N=N/[O-])on[n+]1CCc1ccccc1	40.2 µM	93.2 µM	> 100 µM	47.5 µM	74.2 µM	52.7 µM	> 100 µM	> 100 µM	78.1 µM	43.8 µM	> 100 µM	37.1 µM	> 100 µM	> 100 µM	> 100 µM	> 100 µM	> 100 µM
CCOC(=O)CCC(NC(=O)c1ccc(OCc2ccc3nc(OC)c(OC)nc3c2)cc1)C(=O)OCC (configuration not stated)	> 100 µM	> 100 µM	32.8 µM	> 100 µM	> 100 µM	> 100 µM	> 100 µM	> 100 µM	> 100 µM	64.8 µM	> 100 µM	> 100 µM	96.8 µM	> 100 µM	> 100 µM	> 100 µM	> 100 µM
Cc1ccc(C)c(NC(=O)/C(=N\N)C(c2cnc3ccc([N+](=O)[O-])cc3n2)[N+](=O)[O-])c1 (configuration not stated)	> 100 µM			> 100 µM	> 100 µM	> 100 µM	> 100 µM	> 100 µM	> 100 µM	> 100 µM	> 100 µM	> 100 µM	> 100 µM	> 100 µM	> 100 µM	> 100 µM	> 100 µM
Nc1ncnc2c1ccn2CC=C(CO)CO	> 100 µM	> 100 µM		> 100 µM	> 100 µM	> 100 µM	> 100 µM	> 100 µM	> 100 µM	> 100 µM	> 100 µM	> 100 µM	> 100 µM	> 100 µM	> 100 µM	> 100 µM	> 100 µM
Cc1ccc(S(=O)(=O)N/N=C2/C3C(CC2(C)C)C2(C)CCCC3(C)C2O)cc1 (configuration not stated)	39.3 µM	96.5 µM	31.8 µM	45.3 µM	29.6 µM	32.1 µM	40.4 µM	> 100 µM	31 µM	44.5 µM	30 µM		56.3 µM	> 100 µM	63.7 µM	27.4 µM	60 µM
Cc1ccc(N(C)S(=O)(=O)c2ccccc2)cc1	> 100 µM	> 100 µM	> 100 µM	> 100 µM	> 100 µM	> 100 µM	> 100 µM	> 100 µM	> 100 µM	> 100 µM	> 100 µM	> 100 µM	> 100 µM	> 100 µM	> 100 µM	> 100 µM	> 100 µM
c1ccc(-c2sc(-c3ccccc3)c3c2C2CCC3C2)cc1		> 100 µM	38.1 µM	> 100 µM	> 100 µM	> 100 µM	> 100 µM	58.3 µM	> 100 µM	60.5 µM	> 100 µM	67.7 µM	> 100 µM	44.9 µM	> 100 µM	> 100 µM	> 100 µM
c1ccc2c(c1)ncn2CCn1ccnc1	> 100 µM	> 100 µM	> 100 µM	> 100 µM	> 100 µM	> 100 µM	> 100 µM	> 100 µM	> 100 µM	> 100 µM	> 100 µM	> 100 µM	> 100 µM	> 100 µM	> 100 µM	> 100 µM	> 100 µM
C=CCN1C(=O)/C(=C/c2ccccc2)N=C1SC1OC(COC(C)=O)C(OC(C)=O)C(OC(C)=O)C1OC(C)=O (configuration not stated)	67.8 µM	> 100 µM		> 100 µM	> 100 µM	58.9 µM	76.6 µM		65.5 µM	55.4 µM	52.4 µM		> 100 µM	> 100 µM	> 100 µM	> 100 µM	> 100 µM
Cc1ccc(S(=O)(=O)Nn2c(C)cc3ccc(S(=O)(=O)Nc4ccccc4[N+](=O)[O-])cc3c2=O)cc1	> 100 µM	> 100 µM	44.1 µM	> 100 µM	> 100 µM	> 100 µM	> 100 µM	> 100 µM	> 100 µM	> 100 µM	> 100 µM	> 100 µM	> 100 µM	> 100 µM	> 100 µM	> 100 µM	> 100 µM
CC(=O)O[C@@H]1[C@@H](C)[C@]2(CC(c3ccoc3)OC2O)C2CCC3O[C@]3(C)[C@]2(C)[C@@H]1OC(C)=O (some centres not stated)	> 100 µM	> 100 µM	40 µM	39.9 µM	> 100 µM	> 100 µM	81.4 µM	> 100 µM	63.1 µM	69.7 µM	> 100 µM	65.3 µM	> 100 µM	60.7 µM	> 100 µM	44.1 µM	> 100 µM
COC(=O)c1ccc(-n2c(C)nc(=O)c(-c3ccccc3)c2C)cc1	> 100 µM	> 100 µM	> 100 µM	> 100 µM	> 100 µM	> 100 µM	> 100 µM	> 100 µM	> 100 µM	> 100 µM		> 100 µM	> 100 µM	> 100 µM	> 100 µM	> 100 µM	> 100 µM
CC(=O)N1N=C(c2ccccc2Nc2ccccc2C2=NN(C(C)=O)C(c3ccccc3)O2)OC1c1ccccc1 (configuration not stated)		> 100 µM	> 100 µM	> 100 µM	> 100 µM	> 100 µM	> 100 µM	> 100 µM	> 100 µM	> 100 µM	> 100 µM		> 100 µM	> 100 µM	> 100 µM	> 100 µM	> 100 µM

From PubChem BioAssay (NCI)
